Results on four substances are retold here after US8357501B2, “Tissue protective erythropoietin receptor (NEPOR) and methods of use” (Molecular Health GmbH, priority 2007, dated 2013).

Data set [1] concerns EphB4 expression in the transiently transfected 293T cell line. Briefly: EphB4 knockdown by antisense ODN in transiently transfected cells. In kind it is cell-based. The conditions noted are these: cytosine at the CpG site methylated, compared with AS-10; data not shown.
In data set [2] the test system is erythropoiesis. The following applies: cited from earlier work.
Data set [3] deals with tissue injury. The following applies: wide variety of in vivo and in vitro models, cited from earlier work.
Data set [4] relates to HeyA8-MDR cells. Kind of data set: EPH-B4 siRNA effect on tumor promoting effect of EPO in nude mice (FIG. 17). In kind it is in vivo. The conditions noted are these: HeyA8 MDR i.p. Here is the method:
Female nude mice were injected i.p. with 1×10^6 HeyA8-MDR cells. Day eight following injection the cells were treated with control siRNA-DOPC, EPH-B4 siRNA-DOPC, EPO, or in EPO+ control or EPH-B4 siRNA-DOPC (10 per group). (50 U EPO given 3× week, 5 μg siRNA 2× week). Mice were sacrificed on day 25 and tumor weights were measured. Statistics were done using students T-test. B) Distribution of tumor weight per group.
In these experiments we sought to determine the response to erythropoietin (EPO) treatment in a panel of ovarian cancer cell lines. […] It was then necessary to determine protein expression of these receptors in the panel. […] We then categorized these expression changes particularly with regard to the EPOR and EPH-B4 to then analyze the response to EPO treatment. We analyzed their response to chemotherapy in conjunction with EPO. […] It was then necessary to analyze the activation of signaling pathways known to be activated by these receptors in response to EPO treatment. Three cell lines were starved for two hours to isolate their response to EPO. […] We then sought to determine a EPO dose that optimized its tumor promoting effect in vivo. Female nude mice were injected i.p. with HeyA8 MDR (positive for both EPOR and EPH-B4). […] Treatment continued until tumors became evident, the mice were then sacrificed and the tumor weight was determined. […]

For data set [5] the following is noted: 351 patients receiving radiotherapy; 3 times per week, from 10 to 14 days before and through radiation therapy; placebo 15%; cited from earlier work.

Where two headings read alike, the source gives them in different places. [5mC] = 5-methylcytosine

Turning to “AS-10M: antisense ODN AS-10 with the cytosine at the CpG site methylated (ATGGAGGCCTCGCTCAGAAA; DNA, [5mC] at 11, backbone and methylation of C not given here; listed as Homo sapiens)”, in data set [1], the EphB4 knockdown efficiency entry was “without any loss”.
As for “CEpo: carbamylated Epo, does not stimulate erythropoiesis (Leist et al.)”, the “stimulation of erythropoiesis / haematopoiesis” value is recorded as “does not stimulate” in data set [2] and “fail to induce haematopoiesis” in data set [2] (listed as carbamylated EPO). Further, the entries for the “tissue injury / neuroprotection” value in data set [3] and in data set [3] (listed as carbamylated EPO) were “prevents” and “neuroprotective”, respectively.
For the substance “EPH-B4 siRNA: siRNA specific to EPH-B4, sense 5′CAGCCAAUAGCCACUCUAA3′ (SEQ ID NO: 266), antisense 5′UUAGAGUGGCUAUUGGCUG3′ (SEQ ID NO: 267) (listed as RNA, chemistry not given here; listed as Homo sapiens)”, the “EPO induced tumor growth” value in data set [4] (siRNA 5 μg 2× week in conjunction with EPO 50 U 3× week) was “completely abrogated”. In data set [4] (siRNA alone, 5 μg siRNA 2× week from day eight), the tumor growth result is given as “decrease”.
As for “epoetin beta: EPO in the form of epoetin beta, NeoRecormon from Roche”, in data set [5], the “patients with increased haemoglobin levels” value is on record as 82%.
